These results are taken from patent US20260090980A1, “COSMETIC COMPOSITIONS AND METHODS OF USING THE SAME” (MARY KAY INC., priority 2022, published 2026).

SMILES strings stand for the structures.

The subject of this assay is lipolysis. In words: In-vitro activity: lipolysis. The assay is classed as cell-based. The settings on record: 3 %.

`Cn1c(=O)c2c(ncn2C)n(C)c1=O` [Caffeine]: the “Activity: lipolysis” value is reported as “Lipolysis”.
